PubChem BioAssay AID1918940 (Molecular Pharmacology Branch, DTP, NCI, 2023)

Test system: NCI-H211 complex spheroid viability
Experiment: Anticancer human tumor NCI-H211 cell line growth inhibition [LSD1];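 note: luminescent viability read after seven days of drug exposure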;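 for viability, T/C: 100% = DMSO vehicle control viability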
Conditions: for IC50: curve of first compound; for viability, T/C: stronger effect = lower value
In short: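 Multicellular complex spheroids of tumor cells with human endothelial cells (HUVEC) and mesenchymal stem cells; the LSD1 inhibitor iadademstat was combined with standard-of-care or investigational agents. Top concentration at or near clinical Cmax, half-log dilutions; final DMSO ≤0.25%.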

[1] = second compound 0.1 µM, first compound 0.0316 µM
[2] = second compound 0.1 µM, first compound 0.1 µM
[3] = second compound 0.1 µM, first compound 0.316 µM
[4] = second compound 0.1 µM, first compound 1 µM
[5] = second compound 0.1 µM, first compound 3.16 µM
[6] = second compound 0.1 µM, first compound 10 µM
[7] = second compound 0.316 µM, first compound 0.0316 µM
[8] = second compound 0.316 µM, first compound 0.1 µM
[9] = second compound 0.316 µM, first compound 0.316 µM
[10] = second compound 0.316 µM, first compound 1 µM
[11] = second compound 0.316 µM, first compound 3.16 µM
[12] = second compound 0.316 µM, first compound 10 µM
[13] = second compound 1 µM, first compound 0.0316 µM
[14] = second compound 1 µM, first compound 0.1 µM
[15] = second compound 1 µM, first compound 0.316 µM
[16] = second compound 1 µM, first compound 1 µM
[17] = second compound 1 µM, first compound 3.16 µM
[18] = second compound 1 µM, first compound 10 µM
[19] = second compound 3.16 µM, first compound 0.0316 µM
[20] = second compound 3.16 µM, first compound 0.1 µM
[21] = second compound 3.16 µM, first compound 0.316 µM
[22] = second compound 3.16 µM, first compound 1 µM
[23] = second compound 3.16 µM, first compound 3.16 µM
[24] = second compound 3.16 µM, first compound 10 µM
[25] = second compound 10 µM, first compound 0.0316 µM
[26] = second compound 10 µM, first compound 0.1 µM
[27] = second compound 10 µM, first compound 0.316 µM
[28] = second compound 10 µM, first compound 1 µM
[29] = second compound 10 µM, first compound 3.16 µM
[30] = second compound 10 µM, first compound 10 µM

Compound	IC50 (second compound 0.1 µM)	IC50 (second compound 0.316 µM)	IC50 (second compound 1 µM)	IC50 (second compound 3.16 µM)	IC50 (second compound 10 µM)	viability, T/C [1]	viability, T/C [2]	viability, T/C [3]	viability, T/C [4]	viability, T/C [5]	viability, T/C [6]	viability, T/C [7]	viability, T/C [8]	viability, T/C [9]	viability, T/C [10]	viability, T/C [11]	viability, T/C [12]	viability, T/C [13]	viability, T/C [14]	viability, T/C [15]	further results
CC1(C)CCC(CN2CCN(c3ccc(C(=O)NS(=O)(=O)c4ccc(NCC5CCOCC5)c([N+](=O)[O-])c4)c(Oc4cnc5[nH]ccc5c4)c3)CC2)=C(c2ccc(Cl)cc2)C1 + NC1CCC(NC2CC2c2ccccc2)CC1	5790 nM	5770 nM	> 10000 nM	< 31.6 nM	< 31.6 nM	55.3%	61.6%	73.5%	102%	86.2%	26.8%	64.8%	60.5%	71.2%	84.1%	101%	26%	48.6%	59%	57.6%	viability, T/C [16]: 81.3%; viability, T/C [17]: 93.5%; viability, T/C [18]: 24.7%; viability, T/C [19]: 41.9%; viability, T/C [20]: 44.4%; viability, T/C [21]: 57.9%; viability, T/C [22]: 75.1%; viability, T/C [23]: 88.4%; viability, T/C [24]: 21.1%; viability, T/C [25]: 25.1%; viability, T/C [26]: 24.9%; viability, T/C [27]: 30%; viability, T/C [28]: 33.8%; viability, T/C [29]: 52.6%; viability, T/C [30]: 19.8%
CC1COCCN1c1cc(C2(S(C)(=N)=O)CC2)nc(-c2ccnc3[nH]ccc23)n1 (stereo not given) + NC1CCC(NC2CC2c2ccccc2)CC1	331 nM	184 nM	297 nM	188 nM	< 31.6 nM	67.7%	64.1%	51.6%	16.1%	3.34%	2.31%	79.6%	63%	38.7%	13.6%	3.19%	2.33%	66.4%	67.5%	48.4%	viability, T/C [16]: 16.4%; viability, T/C [17]: 3.53%; viability, T/C [18]: 2.09%; viability, T/C [19]: 66.5%; viability, T/C [20]: 55.5%; viability, T/C [21]: 44.5%; viability, T/C [22]: 17.2%; viability, T/C [23]: 2.59%; viability, T/C [24]: 1.55%; viability, T/C [25]: 40.9%; viability, T/C [26]: 39%; viability, T/C [27]: 25.4%; viability, T/C [28]: 9.13%; viability, T/C [29]: 1.75%; viability, T/C [30]: 1.04%
